Counter-ions that a name gives are not always drawn.

Experiment [1] deals with Plasma TC. The experiment can be described thus: in vivo screen designated APCC (high fat, high cholesterol diet, plasma cholesterol). More on the design: species or system male Sprague-Dawley rats. To be noted: Rattus norvegicus, dose 10 mg/kg; rats, PCC diet with 0.5% cholic acid overnight, vehicle CMC/Tween. The text has this: In one in vivo screen designated APCC, male Sprague-Dawley rats (200 to 225 g) were randomly divided into treatment groups and dosed at 4 PM with either vehicle (CMC/Tween) or suspensions of compounds in vehicle. The normal chow diet was then replaced with a high fat, high cholesterol diet (designated PCC) containing 0.5% cholic acid. The rats consumed this diet ad libitum during the night and were sacrificed at 8 AM to obtain blood samples for cholesterol analysis using standard procedures. Statistical differences between mean cholesterol values for the same vehicle were determined using analysis of variance followed by Fisher's least significant test.

Experiment [2] concerns the target T1, acyl-CoA: cholesterol acyltransferase (ACAT) (Rattus norvegicus, UniProt Q7TQM4).
T1 construct: tissue preparation containing rat liver microsomes; from tissue; host or cells: rat liver microsomes
T1 sequence (Q7TQM4 1-524): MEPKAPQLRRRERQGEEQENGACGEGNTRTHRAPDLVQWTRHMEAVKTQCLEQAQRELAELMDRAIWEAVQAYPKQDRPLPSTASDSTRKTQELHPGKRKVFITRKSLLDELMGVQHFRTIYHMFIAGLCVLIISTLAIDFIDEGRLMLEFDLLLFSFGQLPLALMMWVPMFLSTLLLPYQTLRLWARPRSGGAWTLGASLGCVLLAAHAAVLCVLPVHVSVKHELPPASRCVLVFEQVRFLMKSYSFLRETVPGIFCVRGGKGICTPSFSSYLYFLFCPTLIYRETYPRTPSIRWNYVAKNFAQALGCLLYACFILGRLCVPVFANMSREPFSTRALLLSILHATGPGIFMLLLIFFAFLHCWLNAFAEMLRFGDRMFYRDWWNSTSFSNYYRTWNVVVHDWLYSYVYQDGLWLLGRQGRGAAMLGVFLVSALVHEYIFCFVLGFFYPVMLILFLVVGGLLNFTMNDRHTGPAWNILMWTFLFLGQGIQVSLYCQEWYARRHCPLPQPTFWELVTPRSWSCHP
The experiment can be described thus: In vitro inhibition of acylation of cholesterol by oleic acid (LAI), rat liver microsomes. The format is biochemical. Conditions: radiolabeled oleic acid. As to the method:
The ability of representative compounds of the present invention to inhibit ACAT was measured using an in vitro test more fully described in Field F J, Salone R G, Biochemica et Biophysica 1982; 712:557-570. The test assesses the ability of a test compound to inhibit the acylation of cholesterol by oleic acid by measuring the amount of radiolabeled cholesterol oleate formed from radiolabeled oleic acid in a tissue preparation containing rat liver microsomes.

The IC50 is the concentration that inhibits the measured activity by half. The low end stands for greater potency, the high end for weaker potency. `CC(C)c1cc(C(C)C)c(CC(=O)NS(=O)(=O)Oc2c(C(C)C)cc(CNCc3ccccc3)cc2C(C)C)c(C(C)C)c1` [Example 22, [(2,4,6-Triisopropyl-phenyl)-acetyl]-sulfamic acid 4-(benzylamino-methyl)-2,6-diisopropyl-phenyl ester mono hydrochloride]: in experiment [1], the change in vivo at 10 mg/kg was -18%. In addition, in experiment [2], the IC50 worked out at 22.8 µM.
In the case of `CC(C)c1cc(C(C)C)c(CC(=O)NS(=O)(=O)Oc2c(C(C)C)cc(CN3CCN(C)CC3)cc2C(C)C)c(C(C)C)c1` [Example 23, [(2,4,6-Triisopropyl-phenyl)-acetyl]-sulfamic acid 2,6-diisopropyl-4-(4-methyl-piperazin-1-ylmethyl)-phenyl ester, dihydrochloride], the change in vivo at 10 mg/kg in experiment [1] is 5%. Moreover, the IC50 in experiment [2] came to 50 µM.
With `CC(C)c1cc(C(C)C)c(CC(=O)NS(=O)(=O)Oc2c(C(C)C)cc(C(N)=O)cc2C(C)C)c(C(C)C)c1` [Example 24, [(2,4,6-Triisopropyl-phenyl)-acetyl]-sulfamic acid 4-carbamoyl-2,6-diisopropyl-phenyl ester], the change in vivo at 10 mg/kg in experiment [1] is -5%. Besides, the IC50 in experiment [2] was 43.8 µM.
Regarding `CC(C)c1cc(C(C)C)c(CC(=O)NS(=O)(=O)Oc2c(C(C)C)cc(CO)cc2C(C)C)c(C(C)C)c1` [Example 25, [(2,4,6-Triisopropyl-phenyl)-acetyl]-sulfamic acid 4-hydroxymethyl-2,6-diisopropyl-phenyl ester], the change in vivo at 10 mg/kg in experiment [1] was -54%. In addition, the IC50 in experiment [2] turned out to be 38.5 µM.
For `CC(=O)Nc1cc(C(C)C)c(OS(=O)(=O)NC(=O)Cc2c(C(C)C)cc(C(C)C)cc2C(C)C)c(C(C)C)c1` [Example 26] the same measures were -44% and 30 µM.
As to `CC(C)c1cc(C(C)C)c(CC(=O)NS(=O)(=O)Oc2c(C(C)C)cc(N(CCO)CCO)cc2C(C)C)c(C(C)C)c1` [Example 28, [(2,4,6-Triisopropyl-phenyl)-acetyl]-sulfamic acid 4-[bis-(2-hydroxy-ethyl)-amino]-2,6-diisopropyl-phenyl ester], the change in vivo at 10 mg/kg in experiment [1] is -48%. The IC50 in experiment [2] was 43.8 µM.
As for `CC(C)c1cc(C(C)C)c(CC(=O)NS(=O)(=O)Oc2c(C(C)C)cc(NC(=O)Nc3c(C(C)C)cccc3C(C)C)cc2C(C)C)c(C(C)C)c1` [Example 29], the change in vivo at 10 mg/kg in experiment [1] was -3%. The compound also returned an IC50 in experiment [2] of 33 µM.
As to `CC(C)c1cc(C(C)C)c(CC(=O)NS(=O)(=O)Oc2c(C(C)C)cc(NC(=O)Nc3ccccc3)cc2C(C)C)c(C(C)C)c1` [Example 30], the change in vivo at 10 mg/kg in experiment [1] is -30%. This compound yielded an IC50 in experiment [2] of 20.3 µM.
For the compound `CC(C)c1cc(C(C)C)c(CC(=O)NS(=O)(=O)Oc2c(C(C)C)cc(NC(=S)Nc3ccccc3)cc2C(C)C)c(C(C)C)c1` [Example 31], the change in vivo at 10 mg/kg in experiment [1] is -21%. In experiment [2], this compound registered a half-inhibitory concentration (IC50) of 37.4 µM.
For `CC(C)c1cc(C(C)C)c(CC(=O)NS(=O)(=O)Oc2c(C(C)C)cc(NS(=O)(=O)c3cccs3)cc2C(C)C)c(C(C)C)c1` [Example 32, [(2,4,6-Triisopropyl-phenyl)-acetyl]-sulfamic acid 2,6-diisopropyl-4-(thiophene-2-sulfonyamino)-phenyl ester] the same measures were -60% and 31.1 µM.
As for `CC(C)c1cc(C(C)C)c(CC(=O)NS(=O)(=O)Oc2c(C(C)C)cc(NS(=O)(=O)c3cccc4c(N(C)C)cccc34)cc2C(C)C)c(C(C)C)c1` [Example 33, [(2,4,6-Triisopropyl-phenyl)-acetyl]-sulfamic acid 4-(5 dimethylamino-naphthalene-1-sulfonylamino)-2,6-diisopropyl-phenyl ester], the change in vivo at 10 mg/kg in experiment [1] is -61%. Moreover, half-maximal inhibition in experiment [2] (IC50) was put at 10.6 µM.
On to `CC(C)c1cc(C(C)C)c(CC(=O)NS(=O)(=O)Oc2c(C(C)C)cc(NS(C)(=O)=O)cc2C(C)C)c(C(C)C)c1` [Example 34, [(2,4,6-Triisopropyl-phenyl)-acetyl]-sulfamic acid 2,6-diisopropyl-4methanesulfonylamino-phenyl ester], for which the change in vivo at 10 mg/kg in experiment [1] is -13%. Further, in experiment [2], the IC50 is 45 µM.
For `CCOC(=O)CCCCCc1cc(C(C)C)c(OS(=O)(=O)NC(=O)Cc2c(C(C)C)cc(C(C)C)cc2C(C)C)c(C(C)C)c1` [Example 36, 6-(3,5-Diisopropyl-4-{[(2,4,6-triisopropyl-phenyl)-acetyl]sulfamoyloxy}-phenyl)-hexanoic acid ethyl ester], the change in vivo at 10 mg/kg in experiment [1] was -17%. Inhibition in experiment [2] was half-maximal at 19 µM (IC50).
For `CC(C)c1cc(C(C)C)c(CC(=O)NS(=O)(=O)Oc2c(C(C)C)cc(CCCCCC(=O)O)cc2C(C)C)c(C(C)C)c1` [Example 37] the same measures were -47% and > 50 µM.

Values taken from US6093744A, “N-acyl sulfamic acid esters useful as hypocholesterolemic agents” (Warner-Lambert Company, priority 1998, dated 2000).
